What was measured:
DWD = assay: SRB in vitro cytotoxicity assay, DWD oral cancer cells; type: cell-based; settings: Homo sapiens, 48 h drug exposure, read-out: In vitro anticancer activity GI50, Oral DWD
From the text: (§1) Compounds 4a-4z and 4aa-4ae have been evaluated for their in vitro cytotoxicity in selected human cancer cell lines i.e., colon (Colo205), lung (Hop-62, A549), cervix (SiHa), prostate (PC3), oral (KB, DWD, Gurav), Ovarian (A-2780) and breast (MCF7, Zr-75-1) origin by employing the sulforhodamine B (SRB) assay method (Skehn, P.; Storeng, R.; Scudiero, A.; Monks, J.; MeMohan, D.; Vistica, D.; Jonathan, T. W.; Bokesch, H.; Kenney, S.; Boyd M. R. J. Natl. Cancer Inst. 1990, 82, 1107).
(§2) The synthesized compounds have been evaluated for their in vitro cytotoxicity in human cancer cell lines. A protocol of 48 h continuous drug exposure has been used and a sulforhodamine B (SRB) protein assay has been used to estimate cell viability or growth. The cell lines were grown in DMEM medium containing 10% fetal bovine serum and 2 mM L-glutamine and were inoculated into 96 well microtiter plates in […] at plating densities depending on the doubling time of individual cell lines. The microliter plates were incubated at 37_C, 5% CO2, 95% air, and 100% relative humidity for 24 h prior to addition of experimental drugs. Aliquots of […] of the drug dilutions were added to the appropriate microliter wells already containing […] of cells, suiting in the required final drug concentrations. For each compound four concentrations (0.1, 1, 10 and 100 uM) were evaluated and each was done in triplicate wells. Plates were incubated further for 48 h and assay was terminated by the addition of […] of cold trichloro acetic acid (TCA) (final concentration, 10% TCA) and incubated for 60 min at 4_C. The plates were washed five times with tap water and airdried. Sulforhodamine B (SRB) solution ([…]) at 0.4% (w/v) in 1% acetic acid was added to each of the cells, and plates were incubated for 20 min at room temperature. The residual dye was removed by washing five times with 1% acetic acid. The plates were airdried. Bound stain was subsequently eluted with 10 mM trizma base, and the absorbance was read on an ELISA plate reader at a wavelength of 540 nm with 690 nm reference wavelengths. Percent growth was calculated on a plate by plate basis for test wells relative to control wells. The above determinations were repeated three times. Percentage growth was expressed as the (ratio of average absorbance of the test well to the average absorbance of the control wells)*100. Growth inhibition of 50% (GI50) was calculated from [(Ti−Tz)/(C−Tz)]*100 ¼ 50, which is the drug concentration resulting in a 50% reduction in the net protein increase (as measured by SRB staining) in control cells during the drug incubation. Where, Tz ¼ Optical density at time zero, OD of control ¼ C, and OD of test growth in the presence of drug ¼ Ti.

Gurav = assay: SRB in vitro cytotoxicity assay, Gurav oral cancer cells; type: cell-based; settings: Homo sapiens, 48 h drug exposure, read-out: In vitro anticancer activity GI50, Oral Gurav
From the text: as §1, §2

SiHa = assay: SRB in vitro cytotoxicity assay, SiHa cervix cancer cells; type: cell-based; settings: Homo sapiens, 48 h drug exposure, read-out: In vitro anticancer activity GI50, Cervix SiHa
From the text: as §1, §2

A-549 = assay: SRB in vitro cytotoxicity assay, A-549 lung cancer cells; type: cell-based; settings: Homo sapiens, A549, 48 h drug exposure, read-out: In vitro anticancer activity GI50, Lung A-549
From the text: as §1, §2

MCF7 = assay: SRB in vitro cytotoxicity assay, MCF7 breast cancer cells; type: cell-based; settings: Homo sapiens, 48 h drug exposure, read-out: In vitro anticancer activity GI50, Breast MCF7
From the text: as §1, §2

PC3 = assay: SRB in vitro cytotoxicity assay, PC3 prostate cancer cells; type: cell-based; settings: Homo sapiens, PC-3, 48 h drug exposure, read-out: In vitro anticancer activity GI50, Prostate PC3
From the text: as §1, §2

Hop62 = assay: SRB in vitro cytotoxicity assay, Hop62 lung cancer cells; type: cell-based; settings: Homo sapiens, HOP-62, 48 h drug exposure, read-out: In vitro anticancer activity GI50, Lung Hop62
From the text: as §1, §2

KB = assay: SRB in vitro cytotoxicity assay, KB oral cancer cells; type: cell-based; settings: Homo sapiens, 48 h drug exposure, read-out: In vitro anticancer activity GI50, Oral KB
From the text: as §1, §2

Colo 205 = assay: SRB in vitro cytotoxicity assay, Colo 205 colon cancer cells; type: cell-based; settings: Homo sapiens, 48 h drug exposure, read-out: In vitro anticancer activity GI50, Colon Colo 205
From the text: as §1, §2

A-2780 = assay: SRB in vitro cytotoxicity assay, A-2780 ovarian cancer cells; type: cell-based; settings: Homo sapiens, A2780, 48 h drug exposure, read-out: In vitro anticancer activity GI50, Ovarian A-2780
From the text: as §1, §2

Zr-75-1 = assay: SRB in vitro cytotoxicity assay, Zr-75-1 breast cancer cells; type: cell-based; settings: Homo sapiens, 48 h drug exposure, read-out: In vitro anticancer activity GI50, Breast Zr-75-1
From the text: as §1, §2

COc1cccc2c1C(=O)c1c(O)c3c(c(O)c1C2=O)C[C@@](O)(C(=O)CO)C[C@@H]3O[C@H]1C[C@H](N)[C@H](O)[C@H](C)O1 [ADR, adriamycin, reference compound]
GI50 (DWD): < 100 nM | GI50 (Gurav): < 100 nM | GI50 (SiHa): 160 nM | GI50 (A-549): < 100 nM | GI50 (MCF7): 130 nM | GI50 (PC3): 160 nM | GI50 (Hop62): 150 nM | GI50 (KB): 130 nM | GI50 (Colo 205): < 100 nM | GI50 (A-2780): < 100 nM | GI50 (Zr-75-1): 110 nM

COc1nc2c(c(OC)n1)C(c1cc(OC)c(OC)c(OC)c1)C1=C(COC1=O)N2 (stereo not drawn) [Compound 4a, 2,4-dimethoxy-5-(3,4,5-trimethoxyphenyl)-5,6,8,9-tetrahydrofuro[3′,4′:5,6]pyrido[2,3-d]pyrimidin-6-one]
GI50 (DWD): 2400 nM | GI50 (Gurav): 2000 nM | GI50 (A-549): 2100 nM | GI50 (MCF7): 2400 nM | GI50 (PC3): 2400 nM | GI50 (Hop62): 2500 nM | GI50 (KB): 170 nM | GI50 (Colo 205): 160 nM | GI50 (Zr-75-1): 2200 nM | melting point: 299 to 300 °C

COc1ccc(-c2noc3c2C(c2ccc(OC)c(O)c2)C2=C(COC2=O)N3)cc1 (stereo not drawn) [Compound 4ab, 4-(3-hydroxy-4-methoxyphenyl)-3-(4-methoxyphenyl)-4,5,7,8-tetrahydrofuro[3′,4′:5,6]pyrido[3,2-d]isoxazol-5-one]
GI50 (DWD): < 100 nM | GI50 (Gurav): 140 nM | GI50 (A-549): < 100 nM | GI50 (MCF7): 190 nM | GI50 (PC3): 160 nM | GI50 (Hop62): 140 nM | GI50 (KB): 170 nM | GI50 (Colo 205): 2700 nM | GI50 (A-2780): 160 nM | GI50 (Zr-75-1): 140 nM | melting point: 219 to 221 °C

COc1cc(C2C3=C(COC3=O)Nc3onc(-c4ccc(Cl)cc4)c32)cc(OC)c1OC (stereo not drawn) [Compound 4ac, 3-(4-chlorophenyl)-4-(3,4,5-trimethoxyphenyl)-4,5,7,8-tetrahydrofuro[3′,4′:5,6]pyrido[3,2-d]isoxazol-5-one]
GI50 (DWD): 2000 nM | GI50 (Gurav): 180 nM | GI50 (SiHa): 2300 nM | GI50 (A-549): < 100 nM | GI50 (MCF7): 2300 nM | GI50 (PC3): 2300 nM | GI50 (Hop62): 2500 nM | GI50 (KB): 2400 nM | GI50 (A-2780): 2000 nM | GI50 (Zr-75-1): 190 nM | melting point: 248 to 249 °C

COc1cc(C2C3=C(COC3=O)Nc3ccc4cc(C)[nH]c4c32)cc(OC)c1OC (stereo not drawn) [Compound 4j, 2-methyl-10-(3,4,5-trimethoxyphenyl)-6,7,9,10-tetrahydro-1H-furo[3,4-b]pyrrolo[2,3-f]quinolin-9-one]
GI50 (SiHa): 2600 nM

COc1ccc(C2C3=C(COC3=O)Nc3ccc4cc(C)[nH]c4c32)cc1O (stereo not drawn) [Compound 4k, 10-(3-hydroxy-4-methoxyphenyl)-2-methyl-6,7,9,10-tetrahydro-1H-furo[3,4-b]pyrrolo[2,3-f]quinolin-9-one]
GI50 (DWD): 2000 nM | GI50 (Gurav): 170 nM | GI50 (A-549): < 100 nM | GI50 (MCF7): 2000 nM | GI50 (PC3): 170 nM | GI50 (Hop62): 160 nM | GI50 (KB): 2100 nM | GI50 (Colo 205): 2700 nM | GI50 (A-2780): 190 nM | GI50 (Zr-75-1): 170 nM | melting point: 293 to 294 °C

COc1cc(C2C3=C(COC3=O)Nc3ccc4cn[nH]c4c32)cc(OC)c1OC (stereo not drawn) [Compound 4n, 10-(3,4,5-trimethoxyphenyl)-6,7,9,10-tetrahydro-1H-furo[3,4-b]pyrazolo[3,4-f]quinolin-9-one]
GI50 (DWD): < 100 nM | GI50 (Gurav): 160 nM | GI50 (SiHa): 190 nM | GI50 (A-549): < 100 nM | GI50 (MCF7): 190 nM | GI50 (PC3): 190 nM | GI50 (Hop62): 2100 nM | GI50 (KB): 2100 nM | GI50 (Colo 205): 2700 nM | GI50 (A-2780): 140 nM | GI50 (Zr-75-1): 160 nM

COc1cc(C2C3=C(COC3=O)Nc3ccc4cn[nH]c4c32)ccc1O (stereo not drawn) [Compound 4o, 10-(4-hydroxy-3-methoxyphenyl)-6,7,9,10-tetrahydro-1H-furo[3,4-b]pyrazolo[3,4-f]quinolin-9-one]
GI50 (MCF7): 2000 nM | GI50 (PC3): 2300 nM | GI50 (Hop62): 2800 nM | GI50 (Colo 205): 2000 nM | GI50 (Zr-75-1): 2100 nM | melting point: 238 to 240 °C

COc1ccc(C2C3=C(COC3=O)Nc3ccc4cn[nH]c4c32)cc1[N+](=O)[O-] (stereo not drawn) [Compound 4r, 10-(4-methoxy-3-nitrophenyl)-6,7,9,10-tetrahydro-1H-furo[3,4-b]pyrazolo[3,4-f]quinolin-9-one]
GI50 (DWD): < 100 nM | GI50 (Gurav): 140 nM | GI50 (A-549): < 100 nM | GI50 (MCF7): 160 nM | GI50 (PC3): 160 nM | GI50 (Hop62): 130 nM | GI50 (KB): 120 nM | GI50 (Colo 205): 2200 nM | GI50 (A-2780): 130 nM | GI50 (Zr-75-1): 140 nM | melting point: 217 to 218 °C

COc1cc(C2C3=C(COC3=O)Nc3ccc4ncsc4c32)ccc1O (stereo not drawn) [Compound 4t, 10-(4-hydroxy-3-methoxyphenyl)-6,7,9,10-tetrahydrofuro[3,4-b][1,3]thiazolo[5,4-f]quinolin-9-one]
GI50 (DWD): < 100 nM | GI50 (Gurav): 140 nM | GI50 (A-549): < 100 nM | GI50 (MCF7): 150 nM | GI50 (PC3): 160 nM | GI50 (Hop62): 120 nM | GI50 (KB): 150 nM | GI50 (Colo 205): 2200 nM | GI50 (A-2780): 150 nM | GI50 (Zr-75-1): < 100 nM | melting point: 296 to 297 °C

COc1ccc(C2C3=C(COC3=O)Nc3ccc4ncsc4c32)cc1O (stereo not drawn) [Compound 4u, 10-(3-hydroxy-4-methoxyphenyl)-6,7,9,10-tetrahydrofuro[3,4-b][1,3]thiazolo[5,4-f]quinolin-9-one]
GI50 (DWD): 2000 nM | GI50 (Gurav): 190 nM | GI50 (SiHa): 2000 nM | GI50 (A-549): < 100 nM | GI50 (MCF7): 180 nM | GI50 (PC3): 2100 nM | GI50 (Hop62): 2300 nM | GI50 (KB): 180 nM | GI50 (Colo 205): 150 nM | GI50 (A-2780): 180 nM | GI50 (Zr-75-1): 160 nM | melting point: 327 to 329 °C

COc1cc(C2C3=C(COC3=O)Nc3ccc4nc(C)sc4c32)ccc1O (stereo not drawn) [Compound 4v, 10-(4-hydroxy-3-methoxyphenyl)-2-methyl-6,7,9,10-tetrahydrofuro[3,4-b][1,3]thiazolo[5,4-f]quinolin-9-one]
GI50 (DWD): < 100 nM | GI50 (Gurav): 180 nM | GI50 (SiHa): 180 nM | GI50 (A-549): < 100 nM | GI50 (MCF7): 160 nM | GI50 (PC3): 160 nM | GI50 (Hop62): 170 nM | GI50 (KB): 2000 nM | GI50 (A-2780): 120 nM | GI50 (Zr-75-1): 170 nM | melting point: 293 to 295 °C

— patent publication US8927560B2, “4-Aza-2, 3-didehydropodophyllotoxin compounds and process for the preparation thereof” (Council of Scientific & Industrial Research, priority 2010, dated 2015)
